# Target: CYP2D6 (Homo sapiens, UniProt P10635)
# Test: Inhibition of human recombinant CYP2D6 at 5 uM assessed as blockade of O-demethylation of dextromethorphan in to dextrophan by nanoscale automated in-capillary assay
# Type: ADME
# Settings: recombinant CYP2D6, probe dextromethorphan (O-demethylation to dextrorphan)
# Chain of CYP2D6 (P10635 whole entry): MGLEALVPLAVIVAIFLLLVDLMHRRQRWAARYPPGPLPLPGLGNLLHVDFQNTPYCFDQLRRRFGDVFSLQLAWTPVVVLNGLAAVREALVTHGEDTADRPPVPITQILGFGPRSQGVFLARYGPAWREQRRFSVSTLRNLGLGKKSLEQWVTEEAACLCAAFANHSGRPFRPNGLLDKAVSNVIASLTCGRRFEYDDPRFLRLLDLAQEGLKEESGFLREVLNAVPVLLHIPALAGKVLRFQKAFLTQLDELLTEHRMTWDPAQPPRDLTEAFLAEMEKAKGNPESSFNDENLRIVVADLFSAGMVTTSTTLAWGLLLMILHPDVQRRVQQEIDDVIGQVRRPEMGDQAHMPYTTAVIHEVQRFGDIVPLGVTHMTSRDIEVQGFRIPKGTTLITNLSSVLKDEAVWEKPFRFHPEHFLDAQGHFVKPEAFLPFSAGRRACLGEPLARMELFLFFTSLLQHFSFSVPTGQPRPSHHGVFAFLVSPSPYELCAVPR
row,SMILES,inhibition at 5 µM [%]
1,CNCCC(Oc1ccc(C(F)(F)F)cc1)c1ccccc1 (configuration not stated) [FLUOXETINE],20
2,COc1ccc(C(CN(C)C)C2(O)CCCCC2)cc1 (configuration not stated) [VENLAFAXINE],0

# From ChEMBL document CHEMBL1153443, “Development of an in-capillary approach to nanoscale automated in vitro cytochromes p450 assays” (J Med Chem, 2009)
